Experimental data: patent US20240092835A1, “NOVEL PEPTIDES CAPABLE OF ALTERING NK CELL ACTIVITY” (Massachusetts Institute of Technology, priority 2022, published 2024)
Where no end group is shown, it is not given here.

Tests used:
NKG2A−/NKG2C− NK cells = experiment: NK cell activation markers in control NKG2A-/NKG2C- NK cells incubated with peptide and K562 expressing HLA-E; assay type: cell-based, human
Procedure, shortened: (§1)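 HLA-E-expressing K562 cells incubated with peptides from human or human cytomegalovirus proteomes, then with NK cell subsets sorted by NKG2A/NKG2C status. Read-out is percent of cells positive for surface markers; a rise indicates activation, a fall inhibition.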

NKG2A−/NKG2C+ NK cells [1] = experiment: NK cell activation markers in NKG2A-/NKG2C+ NK cells incubated with peptide and K562 expressing HLA-E (activation); assay type: cell-based, human; conditions: for effect on NKG2A−/NKG2C+ NK cell activation (in words): K562 expressing HLA-E, CD107a, IFNG, TNF, CCL3; for percentage of CCL3+ NK cells / percentage of CD107+ NK cells / percentage of IFNG+ NK cells / percentage of TNF+ NK cells: NKG2A-/NKG2C+ NK cells, K562/HLA-E
Procedure, shortened: as §1

CD94/NKG2C = CD94/NKG2C (Homo sapiens, UniProt P26717+Q13241); experiment: Steady-state surface plasmon resonance of peptide-HLA-E complex with CD94/NKG2C; assay type: binding; conditions: for Binding of peptide-HLA-E complexes to CD94/NKG2C normalized to a theoretical Rmax: steady-state SPR
CD94/NKG2C, sequence (P26717 94-231 limits assumed): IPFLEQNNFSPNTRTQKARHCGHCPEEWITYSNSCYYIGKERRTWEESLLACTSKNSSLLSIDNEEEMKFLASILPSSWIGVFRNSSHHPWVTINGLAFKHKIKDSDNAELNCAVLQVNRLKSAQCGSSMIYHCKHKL
CD94/NKG2C, sequence (Q13241 32-179 limits assumed): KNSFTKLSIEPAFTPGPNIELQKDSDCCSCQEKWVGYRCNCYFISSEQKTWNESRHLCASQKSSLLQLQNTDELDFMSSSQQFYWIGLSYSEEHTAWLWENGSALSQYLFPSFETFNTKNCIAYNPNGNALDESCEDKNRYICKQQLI
Protocol: Binding affinity of novel peptides linked to HLA-E was determined using surface plasmon resonance (SPR), a methodology used to study protein-protein interactions (Tables 15-19). The peptide-HLA-E complex (generated as a single chain trimer) was immobilized on the sensor chip surface and CD94/NKG2A or CD94/NKG2C were flowed over. Steady-state surface plasmon resonance experiments were performed with a Biacore T200 instrument. CD94/NKG2x in HBS-EP+ buffer was injected as analyte in a concentration range of 0.1 μM to 102.4 μM and flow rate of 10 μL/min at 25° C. Data was fit with Prism 9.4 (GraphPad Software Inc; San Diego CA) to a “one site, specific binding” model. Series S CM5 chips were coupled to neutravidin and utilized. Biotinylated pMHC was immobilized at approximately 400 RU. KD values calculated by Biacore software are reported. Rmax, fit values were calculated by Biacore software. Rmax, theoretical values were calculated using the analyte/ligand mass ratio (0.66) multiplied by the amount of ligand coupled to the chip.

NKG2A+/NKG2C− NK cells = experiment: NK cell activation markers in NKG2A+/NKG2C- NK cells incubated with peptide and K562 expressing HLA-E (inhibition); assay type: cell-based, human; conditions: for effect on NKG2A+/NKG2C− NK cell inhibition (in words): K562 expressing HLA-E, CD107a, IFNG, TNF, CCL3; for percentage of CCL3+ NK cells / percentage of CD107a+ NK cells / percentage of IFNG+ NK cells / percentage of TNF+ NK cells: NKG2A+/NKG2C- NK cells, K562/HLA-E
Procedure, shortened: as §1

NKG2A−/NKG2C+ NK cells [2] = experiment: NKG2A-/NKG2C+ NK cell activation with peptide and RMA-S cells expressing HLA-E; assay type: cell-based; conditions: RMA-S cells expressing HLA-E, NKG2A−/NKG2C+ NK cells
Protocol: An antigen processing-defective lymphoma cell line (RMA-S), with a low-level expression of HLA-E, were incubated with the novel peptides to determine the inhibitory strength on NKG2A−/NKG2C+NK cells relative to positive control sequences with differential effects ([…] (SEQ ID NO: 19)/VMAPRTLFL (SEQ ID NO: 18)). The effects of the peptides on NK cell inhibition were determined by measuring four markers of NK cell activation (CD107a, IFNG, TNF, CCL3) in NKG2A−/NKG2C+NK cells (FIGS. 2A-2D). Activation was indicated by an increase in percent cells positive for cell surface markers.

## TAPARTMFL [human13, TAPARTMFL]
NKG2A−/NKG2C− NK cells; Trial 1
  percentage CCL3+ NK cells: 37.2%
  percentage CD107+ NK cells: 26.3%
  percentage TNF+ NK cells: 3.65%
  percentage of IFNG+ NK cells: 16.6%
NKG2A−/NKG2C− NK cells; Trial 2
  percentage CCL3+ NK cells: 65.4%
  percentage CD107+ NK cells: 43%
  percentage TNF+ NK cells: 11.9%
  percentage of IFNG+ NK cells: 32.5%
NKG2A−/NKG2C− NK cells; Trial 3
  percentage CCL3+ NK cells: 56.2%
  percentage CD107+ NK cells: 56.4%
  percentage TNF+ NK cells: 23.2%
  percentage of IFNG+ NK cells: 49.4%
NKG2A−/NKG2C− NK cells; Trial 4
  percentage CCL3+ NK cells: 37.7%
  percentage CD107+ NK cells: 31.8%
  percentage TNF+ NK cells: 12.1%
  percentage of IFNG+ NK cells: 22.2%
NKG2A−/NKG2C− NK cells; Trial 5
  percentage CCL3+ NK cells: 30.1%
  percentage CD107+ NK cells: 22.7%
  percentage TNF+ NK cells: 8.01%
  percentage of IFNG+ NK cells: 18.9%
NKG2A−/NKG2C− NK cells; Trial 6
  percentage CCL3+ NK cells: 27.4%
  percentage CD107+ NK cells: 21.1%
  percentage TNF+ NK cells: 3.64%
  percentage of IFNG+ NK cells: 8.06%
NKG2A−/NKG2C+ NK cells [1]; listed as SEQ ID NO. 5
  effect on NKG2A−/NKG2C+ NK cell activation (in words): activate
NKG2A−/NKG2C+ NK cells [1]; listed as h13
  effect on NKG2A−/NKG2C+ NK cell activation (in words): activated
NKG2A−/NKG2C+ NK cells [1]; Trial 1
  percentage of CCL3+ NK cells: 56.9%
  percentage of CD107+ NK cells: 38.3%
  percentage of IFNG+ NK cells: 18.2%
  percentage of TNF+ NK cells: 9.29%
NKG2A−/NKG2C+ NK cells [1]; Trial 2
  percentage of CCL3+ NK cells: 74.9%
  percentage of CD107+ NK cells: 57%
  percentage of IFNG+ NK cells: 28.7%
  percentage of TNF+ NK cells: 20.7%
NKG2A−/NKG2C+ NK cells [1]; Trial 3
  percentage of CCL3+ NK cells: 72.4%
  percentage of CD107+ NK cells: 71.2%
  percentage of IFNG+ NK cells: 49.2%
  percentage of TNF+ NK cells: 37.9%
NKG2A−/NKG2C+ NK cells [1]; Trial 4
  percentage of CCL3+ NK cells: 60.7%
  percentage of CD107+ NK cells: 57.1%
  percentage of IFNG+ NK cells: 40.8%
  percentage of TNF+ NK cells: 33%
NKG2A−/NKG2C+ NK cells [1]; Trial 5
  percentage of CCL3+ NK cells: 61.9%
  percentage of CD107+ NK cells: 56.2%
  percentage of IFNG+ NK cells: 34.2%
  percentage of TNF+ NK cells: 27.4%
NKG2A−/NKG2C+ NK cells [1]; Trial 6
  percentage of CCL3+ NK cells: 40.7%
  percentage of CD107+ NK cells: 29.1%
  percentage of IFNG+ NK cells: 14.3%
  percentage of TNF+ NK cells: 8.92%
CD94/NKG2C; CD94/NKG2C concentration 0 μM
  binding of peptide-HLA-E complex to CD94/NKG2C normalized to a fitted Rmax: 0.007
CD94/NKG2C; CD94/NKG2C concentration 0.1 μM
  binding of peptide-HLA-E complex to CD94/NKG2C normalized to a fitted Rmax: 0.017
CD94/NKG2C; CD94/NKG2C concentration 0.2 μM
  binding of peptide-HLA-E complex to CD94/NKG2C normalized to a fitted Rmax: 0.023
CD94/NKG2C; CD94/NKG2C concentration 0.4 μM
  binding of peptide-HLA-E complex to CD94/NKG2C normalized to a fitted Rmax: 0.040
CD94/NKG2C; CD94/NKG2C concentration 0.8 μM
  binding of peptide-HLA-E complex to CD94/NKG2C normalized to a fitted Rmax: 0.067
CD94/NKG2C; CD94/NKG2C concentration 1.6 μM
  binding of peptide-HLA-E complex to CD94/NKG2C normalized to a fitted Rmax: 0.117
CD94/NKG2C; CD94/NKG2C concentration 3.2 μM
  binding of peptide-HLA-E complex to CD94/NKG2C normalized to a fitted Rmax: 0.202
CD94/NKG2C; CD94/NKG2C concentration 6.4 μM
  binding of peptide-HLA-E complex to CD94/NKG2C normalized to a fitted Rmax: 0.317
CD94/NKG2C; CD94/NKG2C concentration 12.8 μM
  binding of peptide-HLA-E complex to CD94/NKG2C normalized to a fitted Rmax: 0.462
CD94/NKG2C; CD94/NKG2C concentration 25.6 μM
  binding of peptide-HLA-E complex to CD94/NKG2C normalized to a fitted Rmax: 0.613
CD94/NKG2C; CD94/NKG2C concentration 51.2 μM
  binding of peptide-HLA-E complex to CD94/NKG2C normalized to a fitted Rmax: 0.746
CD94/NKG2C; CD94/NKG2C concentration 102.4 μM
  binding of peptide-HLA-E complex to CD94/NKG2C normalized to a fitted Rmax: 0.904
CD94/NKG2C; CD94/NKG2C analyte concentration 0 μM
  Binding of peptide-HLA-E complexes to CD94/NKG2C normalized to a theoretical Rmax: 0.005
CD94/NKG2C; CD94/NKG2C analyte concentration 0.1 μM
  Binding of peptide-HLA-E complexes to CD94/NKG2C normalized to a theoretical Rmax: 0.012
CD94/NKG2C; CD94/NKG2C analyte concentration 0.2 μM
  Binding of peptide-HLA-E complexes to CD94/NKG2C normalized to a theoretical Rmax: 0.017
CD94/NKG2C; CD94/NKG2C analyte concentration 0.4 μM
  Binding of peptide-HLA-E complexes to CD94/NKG2C normalized to a theoretical Rmax: 0.030
CD94/NKG2C; CD94/NKG2C analyte concentration 0.8 μM
  Binding of peptide-HLA-E complexes to CD94/NKG2C normalized to a theoretical Rmax: 0.050
CD94/NKG2C; CD94/NKG2C analyte concentration 1.6 μM
  Binding of peptide-HLA-E complexes to CD94/NKG2C normalized to a theoretical Rmax: 0.086
CD94/NKG2C; CD94/NKG2C analyte concentration 3.2 μM
  Binding of peptide-HLA-E complexes to CD94/NKG2C normalized to a theoretical Rmax: 0.149
CD94/NKG2C; CD94/NKG2C analyte concentration 6.4 μM
  Binding of peptide-HLA-E complexes to CD94/NKG2C normalized to a theoretical Rmax: 0.234
CD94/NKG2C; CD94/NKG2C analyte concentration 12.8 μM
  Binding of peptide-HLA-E complexes to CD94/NKG2C normalized to a theoretical Rmax: 0.342
CD94/NKG2C; CD94/NKG2C analyte concentration 25.6 μM
  Binding of peptide-HLA-E complexes to CD94/NKG2C normalized to a theoretical Rmax: 0.454
CD94/NKG2C; CD94/NKG2C analyte concentration 51.2 μM
  Binding of peptide-HLA-E complexes to CD94/NKG2C normalized to a theoretical Rmax: 0.552
CD94/NKG2C; CD94/NKG2C analyte concentration 102.4 μM
  Binding of peptide-HLA-E complexes to CD94/NKG2C normalized to a theoretical Rmax: 0.669
NKG2A+/NKG2C− NK cells; listed as SEQ ID NO. 5
  effect on NKG2A+/NKG2C− NK cell inhibition (in words): no or minimal effect
NKG2A+/NKG2C− NK cells; listed as h13
  effect on NKG2A+/NKG2C− NK cell inhibition (in words): no effect
NKG2A+/NKG2C− NK cells; Trial 1
  percentage of CCL3+ NK cells: 52.5%
  percentage of CD107a+ NK cells: 31.2%
  percentage of IFNG+ NK cells: 13%
  percentage of TNF+ NK cells: 3.99%
NKG2A+/NKG2C− NK cells; Trial 2
  percentage of CCL3+ NK cells: 75.9%
  percentage of CD107a+ NK cells: 50.6%
  percentage of IFNG+ NK cells: 30.8%
  percentage of TNF+ NK cells: 13.8%
NKG2A+/NKG2C− NK cells; Trial 3
  percentage of CCL3+ NK cells: 52.6%
  percentage of CD107a+ NK cells: 44.4%
  percentage of IFNG+ NK cells: 31.7%
  percentage of TNF+ NK cells: 17%
NKG2A+/NKG2C− NK cells; Trial 4
  percentage of CCL3+ NK cells: 47.3%
  percentage of CD107a+ NK cells: 37.6%
  percentage of IFNG+ NK cells: 21.7%
  percentage of TNF+ NK cells: 12.6%
NKG2A+/NKG2C− NK cells; Trial 5
  percentage of CCL3+ NK cells: 48.9%
  percentage of CD107a+ NK cells: 32.2%
  percentage of IFNG+ NK cells: 16.9%
  percentage of TNF+ NK cells: 7.45%
NKG2A+/NKG2C− NK cells; Trial 6
  percentage of CCL3+ NK cells: 39.3%
  percentage of CD107a+ NK cells: 28.2%
  percentage of IFNG+ NK cells: 8.81%
  percentage of TNF+ NK cells: 5.68%
NKG2A−/NKG2C+ NK cells [2]
  increase in CCL3+ NK cells (in words): slight increases
  increase in CD107a+ NK cells (in words): slight increases
  increase in IFNG+ NK cells (in words): no increase
  increase in TNF+ NK cells (in words): no increase
